# Measured values as given in publication PMC2918699 (European journal of medicinal chemistry, 2010).
# Experiments:
# [1] = GC-MS analysis of stilbenes in mice serum; type: in vivo, SCID mice; details: GC-MS retention time and mass spectrum compared to standards
# HT-29 xenograft = HT-29 xenograft tumor growth in SCID mice; type: in vivo; details: 10 mg/kg i.p. once daily, after 3 weeks
# p27 = p27 in HT-29 tumors by western blotting and immunohistochemistry; type: in vivo, SCID mice; details: western blotting and immunohistochemistry of HT-29 tumors
# PCNA = PCNA in HT-29 tumors by western blotting and immunohistochemistry; type: in vivo, SCID mice; details: western blotting and immunohistochemistry of HT-29 tumors
# yeast = yeast assays, mimics calorie restriction by stimulating Sir2; cited from earlier work
Configuration (cis/trans) found in the serum [1],SMILES,Tumor weight decrease compared to the control (HT-29 xenograft),other results
isomerized to 3,"COc1cc(/C=C\c2ccc(N)cc2)cc(OC)c1 [Compound 4, (Z)-4-(3,5-dimethoxystyryl)aniline]",–,–
retained their configurations,"COC(=O)c1ccc(/C=C/c2cc(OC)cc(OC)c2)cc1 [Compound 5, (E)-Methyl-4-(3,5-dimethoxystyryl)benzoate]",–,–
retained their configurations,"COC(=O)c1ccc(/C=C\c2cc(OC)cc(OC)c2)cc1 [Compound 6, (Z)- Methyl 4-(3,5-dimethoxystyryl)benzoate]",–,–

# Second part, the compound before the results:
SMILES,Configuration (cis/trans) found in the serum [1],Tumor weight decrease compared to the control (HT-29 xenograft),other results
"COc1ccc(/C=C/c2cc(OC)cc(OC)c2)cc1 [Compound 9, (E)-1,3-dimethoxy-5-(4-methoxystyryl)benzene]",retained their configurations,21%,Tumor volume lower compared to the control (HT-29 xenograft): 45%; p27 levels in tumors (p27): increased; PCNA levels in tumors (PCNA): lowered
"COc1ccc(/C=C\c2cc(OC)cc(OC)c2)cc1 [Compound 10, (Z)-1,3-dimethoxy-5-(4-methoxystyryl)benzene]",retained their configurations,15%,–
"Oc1ccc(/C=C/c2cc(O)cc(O)c2)cc1 [Compound 17, Resveratrol]",–,–,extended lifespan (yeast): 70%
